Measured values published in PubChem BioAssay AID330 (DTP/NCI, 2004).
“And” between values parts separate entries of the source, which are not always exact repeats. Equal values may be shown once. Toxic doses and inconclusive results are not listed. How the source made its calls: active means survival T/C of 150% or more; inactive means T/C below 125% in these data.

Test system: P388 leukemia ip, CD2F1 mice, survival T/C
Assay: NCI In Vivo Anticancer Drug Screen. Data for tumor model P388 Leukemia (intraperitoneal) in CD2F1 (CDF1) mice
Settings: endpoint: median survival time, higher = longer survival
Procedure, shortened: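 Mice carrying the transplanted tumor received test compound or vehicle. Survival was recorded in each group, and the value is the treated-group measurement divided by that of the vehicle-treated control group.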

[1] = dose: 6.25 mg/kg/injection, schedule: Q01DX005 (ip), vehicle: saline with Tween-80
[2] = dose: 12.5 mg/kg/injection, schedule: Q01DX005 (ip), vehicle: saline with Tween-80
[3] = dose: 50.0 mg/kg/injection, schedule: Q01DX005 (ip), vehicle: saline with Tween-80
[4] = dose: 100.0 mg/kg/injection, schedule: Q01DX005 (ip), vehicle: saline with Tween-80
[5] = dose: 200.0 mg/kg/injection, schedule: Q01DX005 (ip), vehicle: saline with Tween-80
[6] = dose: 60.0 mg/kg/injection, schedule: Q01DX005 (ip), vehicle: Klucel (hydroxypropylcellulose) (HPC)
[7] = dose: 120.0 mg/kg/injection, schedule: Q01DX005 (ip), vehicle: Klucel (hydroxypropylcellulose) (HPC)
[8] = dose: 240.0 mg/kg/injection, schedule: Q01DX005 (ip), vehicle: Klucel (hydroxypropylcellulose) (HPC)
[9] = dose: 50.0 mg/kg/injection, schedule: Q01DX009 (ip), vehicle: Klucel (hydroxypropylcellulose) (HPC)
[10] = dose: 100.0 mg/kg/injection, schedule: Q01DX009 (ip), vehicle: Klucel (hydroxypropylcellulose) (HPC)
[11] = dose: 50.0 mg/kg/injection, schedule: Q01DX005 (ip), vehicle: Klucel (hydroxypropylcellulose) (HPC)
[12] = dose: 200.0 mg/kg/injection, schedule: Q01DX001 (ip), vehicle: saline with Tween-80
[13] = dose: 50.0 mg/kg/injection, schedule: Q01DX009 (ip), vehicle: saline with Tween-80
[14] = dose: 100.0 mg/kg/injection, schedule: Q01DX009 (ip), vehicle: saline with Tween-80
[15] = dose: 200.0 mg/kg/injection, schedule: Q01DX009 (ip), vehicle: saline with Tween-80

Measured: T/C

O=c1c2ccccc2sc2cccc(NCCN3CCC(C4CCN(CCNc5cccc6sc7ccccc7c(=O)c56)CC4)CC3)c12
inactive: [1] 105 % of control | [2] 90 % of control | [3] 96 % of control | [4] 92 % of control

CCCCN(CCCC)C(=N)c1ccnc2ccccc12
inactive: dose: 6.25 mg/kg/injection, schedule: Q01DX005 (ip), vehicle: saline 95 % of control | dose: 12.5 mg/kg/injection, schedule: Q01DX005 (ip), vehicle: saline 97 % of control | dose: 25.0 mg/kg/injection, schedule: Q01DX005 (ip), vehicle: saline 97 % of control

CCOC(=O)C/C(O)=C(\N=Nc1nc[nH]c1C(N)=O)C(=O)OCC
inactive: [3] 105 % of control | [4] 91 % of control | [5] 97 % of control

CCOC(=O)C(C)(C)S(=O)Nc1ccccc1 (stereo not given)
inactive: [6] 99 % of control | [7] 99 % of control | [8] 102 % of control

O=C(Nc1ccc(F)cc1F)Oc1cccc2cccnc12
inactive: [9] 114 % of control | [10] 112 % of control

CC(=O)O[C@H]1[C@@H](C(C)C)CC[C@@]2(C)[C@H](Br)CC[C@@](C)(O)[C@H]12
inactive: dose: 20.0 mg/kg/injection, schedule: Q01DX005 (ip), vehicle: other 105 % of control | dose: 40.0 mg/kg/injection, schedule: Q01DX005 (ip), vehicle: other 105 % of control | dose: 80.0 mg/kg/injection, schedule: Q01DX005 (ip), vehicle: other 105 % of control

CCn1c2ccccc2c2cc(N)c(N=Nc3ccc(N(C)C)cc3)cc21
inactive: [9] 113 % of control | [10] 105 % of control | dose: 200.0 mg/kg/injection, schedule: Q01DX009 (ip), vehicle: Klucel (hydroxypropylcellulose) (HPC) 103 % of control

O=C1C2C3CCC(O3)C2C(=O)N1CO (stereo not given)
inactive: dose: 60.0 mg/kg/injection, schedule: Q01DX005 (ip), vehicle: saline 112 % of control | dose: 120.0 mg/kg/injection, schedule: Q01DX005 (ip), vehicle: saline 124 % of control

CC(=O)Nc1nc2ncc(CN(C(C)=O)c3ccc(C4=NC(CCC(=O)O)C(=O)O4)cc3)nc2c(=O)[nH]1 (stereo not given)
inactive: dose: 50.0 mg/kg/injection, schedule: Q04DX003 (ip), vehicle: alkali diluted with saline 97 % of control | dose: 100.0 mg/kg/injection, schedule: Q04DX003 (ip), vehicle: alkali diluted with saline 95 % of control | dose: 200.0 mg/kg/injection, schedule: Q04DX003 (ip), vehicle: alkali diluted with saline 102 % of control

Cc1nc2[nH]cc(-c3ccccc3)c2c(=N)n1-c1ccccc1
inactive: dose: 12.5 mg/kg/injection, schedule: Q01DX005 (ip), vehicle: Klucel (hydroxypropylcellulose) (HPC) 102 % of control | dose: 25.0 mg/kg/injection, schedule: Q01DX005 (ip), vehicle: Klucel (hydroxypropylcellulose) (HPC) 106 % of control | [11] 100 % of control and 104 % of control

CC(O)(CCCCCl)c1nc2ccccc2s1 (stereo not given)
inactive: dose: 100.0 mg/kg/injection, schedule: Q01DX001 (ip), vehicle: saline with Tween-80 98 % of control | [12] 103 % of control | dose: 400.0 mg/kg/injection, schedule: Q01DX001 (ip), vehicle: saline with Tween-80 92 % of control

O=C(O)c1c[nH]c2cc(OCCOc3ccc(F)cc3)ccc2c1=O
inactive: dose: 100.0 mg/kg/injection, schedule: Q04DX003 (ip), vehicle: saline 105 % of control | dose: 200.0 mg/kg/injection, schedule: Q04DX003 (ip), vehicle: saline 105 % of control | dose: 400.0 mg/kg/injection, schedule: Q04DX003 (ip), vehicle: saline 104 % of control

CCCN(CCC)C(=O)c1ccc([N+](=O)[O-])cc1
inactive: dose: 25.0 mg/kg/injection, schedule: Q01DX009 (ip), vehicle: saline with Tween-80 106 % of control | [13] 113 % of control | [14] 100 % of control and 104 % of control | [15] 106 % of control

CCOC(=O)c1c(-c2ccc3c(c2)OCO3)[nH][nH]c1=O
inactive: dose: 100.0 mg/kg/injection, schedule: Q04DX002 (ip), vehicle: saline 101 % of control | dose: 200.0 mg/kg/injection, schedule: Q04DX002 (ip), vehicle: saline 99 % of control

COc1cccc(CC#N)c1O
inactive: dose: 25.0 mg/kg/injection, schedule: Q01DX009 (ip), vehicle: Klucel (hydroxypropylcellulose) (HPC) 105 % of control | [9] 100 % of control | [10] 106 % of control

COC(=O)Cc1cccc2c(=O)cc(-c3cccs3)oc12
inactive: dose: 25.0 mg/kg/injection, schedule: Q01DX009 (ip), vehicle: saline 90 % of control | dose: 25.0 mg/kg/injection, schedule: Q01DX009 (ip), vehicle: suspension in saline 97 % of control | dose: 50.0 mg/kg/injection, schedule: Q01DX009 (ip), vehicle: saline 105 % of control and 92 % of control | dose: 50.0 mg/kg/injection, schedule: Q01DX009 (ip), vehicle: suspension in saline 94 % of control | dose: 100.0 mg/kg/injection, schedule: Q01DX009 (ip), vehicle: saline 117 % of control and 97 % of control | dose: 100.0 mg/kg/injection, schedule: Q01DX009 (ip), vehicle: suspension in saline 94 % of control | dose: 200.0 mg/kg/injection, schedule: Q01DX009 (ip), vehicle: saline 108 % of control | dose: 200.0 mg/kg/injection, schedule: Q01DX009 (ip), vehicle: suspension in saline 95 % of control

Nc1ccnc(F)n1
inactive: [6] 100 % of control | [7] 106 % of control | [8] 106 % of control

CC(Sc1ccccn1)C(=O)c1ccccc1 (stereo not given)
inactive: [3] 102 % of control | [4] 109 % of control | [5] 102 % of control

OCc1c(-c2ccc(Cl)cc2)c(-c2ccc(Cl)cc2)c2n1CCC2
inactive: [11] 92 % of control | dose: 100.0 mg/kg/injection, schedule: Q01DX005 (ip), vehicle: Klucel (hydroxypropylcellulose) (HPC) 92 % of control | dose: 200.0 mg/kg/injection, schedule: Q01DX005 (ip), vehicle: Klucel (hydroxypropylcellulose) (HPC) 92 % of control

CC(C)(N)COC(=O)c1ccccc1C(=O)O
inactive: dose: 100.0 mg/kg/injection, schedule: Q01DX001 (ip), vehicle: saline 90 % of control | dose: 200.0 mg/kg/injection, schedule: Q01DX001 (ip), vehicle: saline 95 % of control | dose: 400.0 mg/kg/injection, schedule: Q01DX001 (ip), vehicle: saline 104 % of control

CCCCCCCCC(CCc1ccccc1)CCc1ccccc1
inactive: dose: 50.0 mg/kg/injection, schedule: Q01DX001 (ip), vehicle: saline with Tween-80 88 % of control | [12] 100 % of control

Cc1cc(C)c(-c2cc(C(O)C3OC4OC(C)(C)OC4C3O)on2)c(C)c1 (stereo not given)
inactive: [3] 108 % of control | [4] 90 % of control

Cc1cccc(NCc2ccncc2)n1
inactive: [1] 92 % of control | [2] 102 % of control | dose: 25.0 mg/kg/injection, schedule: Q01DX005 (ip), vehicle: saline with Tween-80 100 % of control | [3] 100 % of control

Nc1[nH]c(=O)[nH]c(=O)c1N
inactive: [13] 100 % of control | [14] 100 % of control | [15] 100 % of control
